Measurements as given in patent US20150359884A1, “MULTI-PHOTON ISOMERISATION OF COMBRETASTATINS AND THEIR USE IN THERAPY” (priority 2011, published 2015).

Columns and labels:
[1] = Two-photon absorption cross section using reference fluorophore 9-chloroanthracene; assay type: physicochemical; conditions: at 620 nm, DCM
Source text: (§1) Cell images were overlaid using Adobe Photoshop CS3.
Published cross sections for two photon absorption (σ2, the probability of an absorption process or photon interaction) typically show large variations depending on the method of measurement, using either the Z-scan method or a reference fluorophore, and the power range and pulse duration of the laser used for excitation. We have attempted to determine values of σ2 for E-CA4 and E-ACA4 using a reference fluorophore. 9-Chloroanthracene (9CIA) was selected as a standard fluorophore with an appropriate fluorescence spectrum and for which 2PE cross-sections are available. The values of σ2 at 620 nm for E-CA4 and E-CA4F in DCM were determined to be 2.1±0.5 and 2.75±0.6 GM units respectively. […] Values of σ2 at 620 nm for E-ACA and E-DMAC were both 5.7±1.2. These larger values may be consistent with some charge transfer character of the excitation of these compounds.

[2] = Fluorescence lifetimes in solvents, two-photon excitation with TCSPC; assay type: physicochemical
Description: Fluorescence lifetimes were determined using 2PE at 630 nm with the microscope TCSPC setup (overall time response of 25 ps fwhm) and produced the results shown in Table 1. […] Characterisation of the spectroscopic properties of these latter two compounds remains to be investigated further. […] In the very viscous environment provided by glycerol the lifetime increases further to 1180 ps. In the range of alkanols studied the lifetime is closely correlated with solvent viscosity as shown in the inset to FIG. 3. […] However it is clear that the measured lifetime has the potential to report on cellular environments in FLIM studies. For E-CA4F similar trends are observed, but the overall differences in both lifetimes and quantum yields over the range of solvents are rather less than for E-CA4. The fluorescence lifetimes of E-CA4F are confined to a narrower range having values ranging from 440 ps in methanol through 740 ps in hexane to 1070 ps in glycerol. The more pronounced solvent dependence for E-CA4 no doubt reflects the more polar nature of the molecule compared with E-CA4F. The relative polarities may be judged from the partition coefficients (P) calculated according to the method of Brown et al..

[3] = Fluorescence quantum yields in solvents, UV one-photon excitation; assay type: physicochemical; conditions: 20° C., 290-300 nm excitation
Description: Absorption spectra were measured in either a Perkin Elmer Lambda 25 or 950 spectrophotometer. Fluorescence measurements were made with either a Spex Fluoromax or Varian Cary Eclipse spectrofluorimeter using the spectral correction curves supplied by the manufacturers. Fluorescence quantum yields with UV (one-photon) excitation were determined using either 2-aminopyridine (Φref 0.6 [7]) or 9-chloroanthracene (Φref 0.50 in dichloromethane, determined here relative to 9,10-diphenylanthracene in cyclohexane (Φref 0.97) and anthracene in ethanol (Φref 0.28 [8]) as standards. Fluorescence quantum yields were determined from the relative slopes of plots of integrated fluorescence intensity versus (1-10^−A) for samples having absorbance A≦0.1. The square of the refractive index (n^2) correction was applied when sample and reference compounds were in different solvents. Irradiation of the samples was minimized by the use of narrow excitation slits to reduce simultaneous photoisomerization.
The fluorescence quantum yields for E-CA4F were generally somewhat higher than for E-CA4.

HeLa cells = assay: Fluorescence lifetime imaging (FLIM) of uptake and intracellular concentration in HeLa cells
Description: Both HeLa and Chinese hamster ovary (CHO) cells were obtained from the European Collection of Cell Cultures. HeLa cells were cultured in MEM medium (Gibco) containing 10% foetal calf serum, penicillin (100 units/mL), streptomycin (100 μg/mL) and glutamine (2 mM). CHO cells were cultured in DMEM (Gibco) with the same additions as for the HeLa cells. For microscopy the adherent cell cultures were grown in 35 mm diameter glass-bottom culture dishes with optical quality glass (MatTek Corporation) and incubated at 37° C. in a humidified atmosphere containing 5% CO2. Human umbilical vein endothelial cells (HUVECs) were obtained from TCS Cellworks. HUVECs were sub-cultured in basal medium (TCS Cellworks) supplemented with antibiotic supplement/amphotericin-B, following the detailed guidelines provided by TCS Cellworks.
The fluorescence lifetime imaging system with multiphoton excitation employed lasers for multiphoton excitation consisting of a Ti:Sapphire laser, tuneable between 700 and 1000 nm and providing ca 180 fs pulses at 76 MHz, and an optical parametric oscillator (OPO) pumped by a second Ti:Sapphire laser source. Using the doubled idler output of the OPO, useful energies (>200 mW) could be obtained between 550 and 640 nm. Samples were excited on the stage of Nikon TE2000U inverted microscope using a water immersion ×60 objective of NA 1.2. Using the various microscope ports it was possible to record the fluorescence in a number of ways. The fluorescence signal at one port was relayed to a spectrometer (Acton 275) and CCD setup (Andor iDUS) so that emission spectra and intensities could be recorded. Alternatively the fluorescence signal could be routed via a second port to a time-correlated single photon counting (TCSPC) system (Becker and Hickl SPC-830) allowing fluorescence lifetime measurements and fluorescence lifetime imaging (FLIM), using Becker and Hickl software (SPCImage) for analysis. In FLIM mode the fluorescence was isolated by a suitable narrowband interference filter (400IU25 together with BG3 (Comar)). […] Two photon cross sections were determined using a reference fluorophore as a two photon standard as described by Mathai et al., employing published values of the two-photon cross section for 9-chloroanthracene.
Images of intracellular distribution of E-combretastatins in cell monolayers were obtained using fluorescence lifetime imaging, in which the rastered excitation laser beam dwells on each pixel for a few milliseconds and at each position records a nanosecond fluorescence lifetime decay curve using the time-correlated single photon counting method. […]
Quantification of fluorophore concentration from intensity measurements is often difficult.

[4] = system: human umbilical vein endothelial cells (HUVECs); assay: Fluorescence lifetime imaging (FLIM) of uptake and intracellular concentration in HUVECs; assay type: cell-based
Source text: as §1
Z-CA4 and analogues exert their anticancer activity by preventing the process of angiogenesis in which a growing tumour is supplied with new vasculature for the supply of nutrients via the bloodstream. We have therefore studied interactions between combretastatins and cultured HUVECs. […] Nevertheless it was possible to obtain images of cells after uptake upon E-combretastatin addition to the supporting medium at relatively low concentrations. […] In addition there are some punctate structures apparent in the images that appear to correlate with lipid droplets identified by Nile Red staining of the same cell. At 37° C. exact co-localization of the sequential images of combretastatin fluorescence and Nile Red labelled lipid droplets, obtained using the two different imaging systems attached to the microscope, is not possible because of the Brownian motion and the occasional rapid saltation of these structures that occur as a result of their transport upon the cellular microtubule network. The fluorescence lifetime distribution of intracellular E-CA4F observed in this cell simultaneously labelled with Nile Red peaks at ˜950 ps. […] This confirms that Nile Red and E-CA4F exist in the same space and are able to come close enough to allow FRET. The long lifetime of E-CA4F fluorescence in the HUVEC cell indicates a viscous environment for E-CA4F within the cell which is consistent with a lipidic location such as a membrane or lipid droplet. Since the fluorescence lifetimes and quantum yields of E-CA4F are directly related, it is possible to combine the FI and lifetime images to calculate the concentration distribution, using a series of standard solutions (DMSO was the chosen solvent with τ 810 ps). […] It is therefore clear that E-CA4F (and other compounds in FIG. 10) are taken up by their target endothelial cell and accumulated by up to 200 times the extracellular concentration of the compound. Similar images have been obtained that show corresponding uptake of E-CA4F within HUVECs from solutions containing as little as 1 μM E-CA4F.

[5] = DCM, 20° C., two-photon excitation 620-630 nm, ne = non-exponential
[6] = DMSO, 20° C., two-photon excitation 620-630 nm
[7] = EtOH, 20° C., two-photon excitation 620-630 nm, ne = non-exponential
[8] = Ethylene glycol, 20° C., two-photon excitation 620-630 nm, ne = non-exponential
[9] = Hexane, 20° C., two-photon excitation 620-630 nm
[10] = MeCN, 20° C., two-photon excitation 620-630 nm, ne = non-exponential
[11] = MeOH, 20° C., two-photon excitation 620-630 nm, ne = non-exponential
[12] = HUVEC, 5 μM in medium, 37° C., 60 min

| SMILES | Two photon absorption cross section σ2 [1] [GM units] | Fluorescence lifetime τ [2, 5] | Fluorescence lifetime τ [2, 6] [ns] | Fluorescence lifetime τ [2, 7] | Fluorescence lifetime τ [2, 8] | Fluorescence lifetime τ [2, 9] [ns] | Fluorescence lifetime τ [2, 10] | Fluorescence lifetime τ [2, 11] | Fluorescence quantum yield φ ([3]; DCM) | also measured |
| --- | --- | --- | --- | --- | --- | --- | --- | --- | --- | --- |
| COc1cc(/C=C/c2ccc(N(C)C)cc2)cc(OC)c1OC [E-DMAC, (E)-1-(3′,4′,5′-Trimethoxyphenyl)-2-(4″-dimethylamino-phenyl)ethene] | 5.7±1.2 | ne | 0.36 | ne | ne | 0.41 | ne | ne | 0.11 |  |
| COc1cc(C=Cc2ccc(C#N)cc2)cc(OC)c1OC [E-CNCA4, 4-[2-(3,4,5-trimethoxyphenyl)vinyl]benzonitrile] |  |  | 0.71 |  |  |  |  |  |  | Intracellular distribution (HeLa cells): accumulates mainly within the cell cytoplasm and is excluded from the cell nucleus |
| COc1ccc(/C=C/c2cc(OC)c(OC)c(OC)c2)cc1F [E-CA4F, (E)-1-(3′,4′,5′-trimethoxyphenyl)-2-(3″-fluoro-4″-methoxyphenyl)ethene] | 2.75±0.6 | 0.61 ns | 0.81 | 0.48 ns | 0.76 ns | 0.75 | 0.59 ns | 0.44 ns | 0.23 | Accumulation relative to the extracellular concentration ([4]; HUVEC endothelial cells): up to 200 times; Intracellular concentration in many parts of the cell [4, 12]: 500 µM; Intracellular concentration in the lipid droplets, peak [4, 12]: over 1 mM; Intracellular concentration as times that added to the surrounding medium ([4]; HUVEC, 5 μM in medium, many parts of the cell): 100 times; Intracellular distribution ([4]; HUVEC, 5 μM, 37° C., 60 min): taken up into the cytoplasmic region of the cell, but excluded from the cell nucleus; Fluorescence lifetime τ ([2]; DMSO standard solutions): 810 ps; Fluorescence lifetime τ ([2]; Glycerol, 20° C., two-photon excitation 620-630 nm, ne = non-exponential): 1.07 ns; Fluorescence lifetime ([2]; glycerol): 1070 ps; Fluorescence lifetime ([2]; hexane): 740 ps; Fluorescence lifetime ([2]; methanol): 440 ps; Fluorescence quantum yield φ ([3]; DMSO): 0.29; Fluorescence quantum yield φ ([3]; EtOH): 0.17; Fluorescence quantum yield φ ([3]; Ethylene glycol): 0.29; Fluorescence quantum yield φ ([3]; Glycerol): 0.42; Fluorescence quantum yield φ ([3]; Hexane): 0.31; Fluorescence quantum yield φ ([3]; MeCN): 0.2; Fluorescence quantum yield φ ([3]; MeOH): 0.15 |
